The values below come from BindingDB's records for doi:10.7270/Q2JQ0ZDS (Sanford-Burnham Center for Chemical Genomics, 2009).

This experiment concerns the target Intestinal-type alkaline phosphatase (Homo sapiens, UniProt P09923). Nature of the experiment: human IAP enzyme inhibitors, dose response, biochemical, luminescence (AID 1017).

“And” between values parts separate entries of the source, which are not always exact repeats. Equal values may be shown once. Where a name gives a salt, the structure may show the parent alone.

Sequence of Intestinal-type alkaline phosphatase (P09923 whole entry, looked up): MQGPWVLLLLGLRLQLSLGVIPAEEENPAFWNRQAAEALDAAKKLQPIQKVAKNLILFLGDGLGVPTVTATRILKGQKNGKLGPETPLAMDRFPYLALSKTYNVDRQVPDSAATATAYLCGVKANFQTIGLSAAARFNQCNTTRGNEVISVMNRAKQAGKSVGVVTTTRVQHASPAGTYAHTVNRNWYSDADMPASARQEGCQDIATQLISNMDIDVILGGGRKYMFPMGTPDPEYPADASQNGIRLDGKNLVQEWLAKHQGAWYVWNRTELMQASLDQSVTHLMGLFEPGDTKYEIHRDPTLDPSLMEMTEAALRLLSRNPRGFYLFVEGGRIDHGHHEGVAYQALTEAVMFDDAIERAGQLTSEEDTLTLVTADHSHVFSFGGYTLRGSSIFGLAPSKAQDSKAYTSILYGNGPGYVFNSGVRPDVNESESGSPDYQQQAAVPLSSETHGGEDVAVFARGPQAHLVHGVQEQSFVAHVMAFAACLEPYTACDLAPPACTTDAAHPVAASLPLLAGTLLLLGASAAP

Broadly, the IC50 is the concentration needed to halve the response being measured. High values mean weaker potency, low ones greater potency. For `O=C(CSc1nnc(-c2ccccc2)[nH]1)c1ccc(O)c(O)c1`, inhibition was half-maximal at 5.32 µM (IC50).

With `CCOC(=O)c1cc(-c2ccc3c(c2)OCCO3)n[nH]1`, the IC50 was over 100 µM.

Consider `COc1ccc(-c2[nH]nc3oc(=O)cc(C)c23)cc1`, for which the IC50 was over 100 µM.

`COC(=O)c1cc(-c2ccc(Br)cc2)n[nH]1` came in with an IC50 of over 100 µM.

The compound `COC(=O)c1cc(-c2ccc(C)cc2C)n[nH]1` yielded an IC50 of over 100 µM.

For `O=C1c2ccccc2C(=O)C1c1nc2ccccc2[nH]1`, the IC50 is over 100 µM.

In turn, `O=C1c2c(Cl)c(Cl)c(Cl)c(Cl)c2C(=O)N1c1nnc(CCc2ccccc2)[nH]1` showed an IC50 of over 100 µM.

In the case of `COC(=O)c1cc(-c2ccc(Cl)cc2Cl)n[nH]1`, the IC50 was over 100 µM.

`COc1ccc(OC)c(S(=O)(=O)Nc2cnc3ccccc3c2)c1` displayed an IC50 of over 100 µM.

`O=C(O)c1ccc2c(c1)C(=O)N(c1nc(-c3cccnc3)n[nH]1)C2=O` [1,3-dioxo-2-(5-pyridin-3-yl-1H-1,2,4-triazol-3-yl)isoindole-5-carboxylic acid] yielded an IC50 of 40.7 µM.

For `CCn1c(SCC(=O)c2ccc(O)c(O)c2)nnc1-c1ccccc1` [1-(3,4-Dihydroxy-phenyl)-2-(4-ethyl-5-phenyl-4H-[1,2,4]triazol-3-ylsulfanyl)-ethanone], it took 32.8 µM to reach half-maximal inhibition (inactive by the depositor's call) (IC50). This lies in the double-digit micromolar range.

`COc1ccc(-n2nnnc2SCC(=O)c2ccc(O)c(O)c2)cc1` [1-(3,4-dihydroxyphenyl)-2-(1-(4-methoxyphenyl)-1H-tetrazol-5-ylthio)ethanone] returned an IC50 of 4.35 µM.

As to `O=C(Cn1ccnc1)c1ccc(O)c(O)c1` [1-(3,4-dihydroxyphenyl)-2-(1-imidazolyl)ethanone;hydrochloride], the IC50 is 30.2 µM and 18.5 µM.

In turn, `CCc1nccn1CC(=O)c1ccc(O)c(O)c1` [1-(3,4-dihydroxyphenyl)-2-(2-ethyl-1-imidazolyl)ethanone;hydrochloride] returned an IC50 of over 100 µM.

For the compound `Cc1nc2ccccc2n1CC(=O)c1ccc(O)c(O)c1` [1-(3,4-dihydroxyphenyl)-2-(2-methyl-1-benzimidazolyl)ethanone;hydrochloride], the IC50 is over 100 µM.

In turn, `Cc1cc(C)nc(SCC(=O)c2ccc(O)c(O)c2)n1` [1-(3,4-dihydroxyphenyl)-2-(4,6-dimethylpyrimidin-2-ylthio)ethanone] yielded an IC50 of 49.5 µM.

In turn, `Cc1cnn(CC(=O)c2ccc(O)c(O)c2)c1` [1-(3,4-dihydroxyphenyl)-2-(4-methyl-1H-pyrazol-1-yl)ethanone] had an IC50 of 53.3 µM.

Compound `Cn1c(SCC(=O)c2ccc(O)c(O)c2)nnc1-c1ccccc1` [1-(3,4-dihydroxyphenyl)-2-(4-methyl-5-phenyl-4H-1,2,4-triazol-3-ylthio)ethanone] showed an IC50 of over 100 µM.

`O=C(CNc1ccncc1)c1ccc(O)c(O)c1` [1-(3,4-dihydroxyphenyl)-2-(4-pyridylamino)ethanone] came in with an IC50 of over 100 µM.

`Cc1ccc(-n2nnnc2SCC(=O)c2ccc(O)c(O)c2)cc1` [1-(3,4-dihydroxyphenyl)-2-[1-(4-methylphenyl)tetrazol-5-yl]sulfanylethanone] returned an IC50 of 3.36 µM.

With `C=CCn1c(SCC(=O)c2ccc(O)c(O)c2)nnc1-c1cccnc1` [1-(3,4-dihydroxyphenyl)-2-[(4-prop-2-enyl-5-pyridin-3-yl-1,2,4-triazol-3-yl)sulfanyl]ethanone], the IC50 stood at 40.4 µM.

As to `C=CCn1c(SCC(=O)c2ccc(O)c(O)c2)nnc1-c1ccccc1` [1-(3,4-dihydroxyphenyl)-2-[(5-phenyl-4-prop-2-enyl-1,2,4-triazol-3-yl)sulfanyl]ethanone], the IC50 was 10.1 µM.

The compound `COc1ccccc1-c1nc(SCC(=O)c2ccc(O)c(O)c2)n[nH]1` [1-(3,4-dihydroxyphenyl)-2-[[5-(2-methoxyphenyl)-1H-1,2,4-triazol-3-yl]sulfanyl]ethanone] displayed an IC50 of over 3.13 µM.

For the compound `C=CCn1c(SCC(=O)c2ccc(O)c(O)c2)nnc1-c1ccccc1OC` [1-(3,4-dihydroxyphenyl)-2-[[5-(2-methoxyphenyl)-4-prop-2-enyl-1,2,4-triazol-3-yl]sulfanyl]ethanone], the IC50 is > 6.25 µM and 20.7 µM.

Regarding `C=CCn1c(SCC(=O)c2ccc(O)c(O)c2)nnc1-c1cccc(OC)c1` [1-(3,4-dihydroxyphenyl)-2-[[5-(3-methoxyphenyl)-4-prop-2-enyl-1,2,4-triazol-3-yl]sulfanyl]ethanone], it took 13.1 µM to reach half-maximal inhibition (IC50).

For `O=C(CSc1nnc(-c2ccccc2)[nH]1)c1ccc(O)cc1O` [1-[2,4-bis(oxidanyl)phenyl]-2-[(5-phenyl-1H-1,2,4-triazol-3-yl)sulfanyl]ethanone], the IC50 is over 100 µM.

In turn, `O=C(CSc1nnc(-c2ccccc2Cl)[nH]1)c1ccc(O)c(O)c1` [1-[3,4-bis(oxidanyl)phenyl]-2-[[5-(2-chlorophenyl)-1H-1,2,4-triazol-3-yl]sulfanyl]ethanone] came in with a half-inhibitory concentration (IC50) of over 100 µM.

`COc1ccc(OC)c(S(=O)(=O)Nc2cccnc2)c1` [2,5-Dimethoxy-N-(pyridin-3-yl)benzenesulfonamide]: the IC50 was over 100 µM.

With `O=C1c2ccccc2C(=O)N1c1nncs1` [2-(1,3,4-thiadiazol-2-yl)isoindole-1,3-dione], the IC50 was over 100 µM.

Turning to `O=C(Cn1cnc2ccccc21)c1ccc(O)c(O)c1` [2-(1-benzimidazolyl)-1-(3,4-dihydroxyphenyl)ethanone;hydrochloride], the IC50 is 14.8 µM.

`O=C1c2ccccc2C(=O)N1c1nnc[nH]1` [2-(1H-1,2,4-triazol-5-yl)isoindole-1,3-dione] displayed an IC50 of over 100 µM.

Turning to `Cc1cc(C)nc(SCC(=O)c2ccc(O)cc2)n1` [2-(4,6-dimethylpyrimidin-2-ylthio)-1-(4-hydroxyphenyl)ethanone], the IC50 was over 100 µM.

In the case of `COc1ccc(C(=O)CSc2nc(C)cc(C)n2)cc1` [2-(4,6-dimethylpyrimidin-2-ylthio)-1-(4-methoxyphenyl)ethanone], the IC50 is over 100 µM.

As for `Oc1c2c(c(O)n1-c1nnc(-c3ccccc3)[nH]1)CC=CC2` [2-(5-Phenyl-2H-[1,2,4]triazol-3-yl)-3a,4,7,7a-tetrahydro-isoindole-1,3-dione], the IC50 was 0.11 µM and 0.157 µM.

Consider `COc1ccc(C)cc1S(=O)(=O)Nc1cccnc1` [2-Methoxy-5-methyl-N-(pyridin-3-yl)benzenesulfonamide], for which the IC50 was over 100 µM.

On to `COc1ccc(C)cc1S(=O)(=O)Nc1cnc2ccccc2c1` [2-Methoxy-5-methyl-N-(quinolin-3-yl)benzenesulfonamide], for which the IC50 is over 100 µM.

The compound `CCn1c(CSc2nc3ccccc3s2)nnc1SCC(=O)c1ccc(O)c(O)c1` [2-[[5-(1,3-benzothiazol-2-ylsulfanylmethyl)-4-ethyl-1,2,4-triazol-3-yl]sulfanyl]-1-(3,4-dihydroxyphenyl)ethanone] displayed an IC50 of over 100 µM.

`COc1ccc(C)cc1S(=O)(=O)Nc1ccc2ccccc2c1` [2-methoxy-5-methyl-N-(2-naphthalenyl)benzenesulfonamide] registered an IC50 of over 100 µM.

The compound `O=C(O)c1cc(-c2ccccc2Cl)n[nH]1` [3-(2-chlorophenyl)-1H-pyrazole-5-carboxylic acid] came in with an IC50 of 43.4 µM. That is a double-digit micromolar value.

On to `O=C1c2c(Cl)c(Cl)c(Cl)c(Cl)c2C(=O)N1c1nnc[nH]1` [4,5,6,7-tetrachloro-2-(1H-1,2,4-triazol-5-yl)isoindole-1,3-dione], for which the IC50 is over 10 µM.

Compound `Cn1nc(C(=O)O)cc1-c1ccc(F)cc1` [5-(4-fluorophenyl)-1-methyl-3-pyrazolecarboxylic acid] returned an IC50 of over 100 µM.

For `Cn1nc(-c2ccc(F)cc2)cc1C(=O)O` [5-(4-fluorophenyl)-2-methyl-3-pyrazolecarboxylic acid], the IC50 was over 100 µM.

In turn, `CCOc1ccc(Cl)cc1S(=O)(=O)Nc1cccnc1` [5-chloro-2-ethoxy-N-(pyridin-3-yl)benzenesulfonamide] returned an IC50 of over 100 µM.

Compound `COc1cc(C)c(Cl)cc1S(=O)(=O)Nc1cccnc1` [5-chloro-2-methoxy-4-methyl-N-(pyridin-3-yl)benzenesulfonamide] gave an IC50 of over 100 µM.

`O=C(c1[nH]nc2c1COc1ccccc1-2)N1CCCC1` [(2,4-dihydrochromeno[4,3-c]pyrazol-3-yl)(pyrrolidin-1-yl)methanone]: the IC50 is over 100 µM.

For `O=C1Nc2ccccc2C1C=NCCc1ccc(O)c(O)c1` (configuration not stated) [(3E)-3-[[2-(3,4-dihydroxyphenyl)ethylamino]methylene]oxindole], 9.95 µM corresponded to half-maximal inhibition (IC50).

With `Oc1c2c(c(O)n1-c1nnc(Cc3ccccc3)[nH]1)CC=CC2` [MLS000100008], the IC50 was 0.539 µM and 0.922 µM.

`Cc1cc(=O)oc2n[nH]c(-c3ccccc3)c12` [MLS-0013971.0001]: the IC50 is over 100 µM.

As for `Oc1cc(-c2cccc3ccccc23)[nH]n1` [MLS-0067141.0001], the IC50 was over 100 µM.

With `COC(=O)c1cc(-c2ccc(OC)cc2)[nH]n1` [MLS-0091975.0001], the IC50 was over 100 µM.

As to `COC(=O)c1cc(-c2ccc3ccccc3c2)[nH]n1` [MLS-0111546.0001], the IC50 is over 100 µM.

The compound `CCOC(=O)c1cc(-c2ccc(Cl)cc2)n[nH]1` [MLS-0111582.0001] came in with a concentration for half-maximal inhibition (IC50) of over 100 µM.

For the compound `O=C1c2c(Cl)c(Cl)c(Cl)c(Cl)c2C(=O)N1c1nc(Cc2ccccc2)n[nH]1` [MLS-0146263.0001], the IC50 is over 100 µM.

The compound `COc1ccc2c(c1OC)C(=O)N(c1nnc(SC)[nH]1)C2=O` [MLS-0146265.0001] came in with an IC50 of over 100 µM.

For `CCc1nnc(SCC(=O)c2ccc(O)c(O)c2)[nH]1` [MLS-0315685.0001], half-maximal inhibition (IC50) required 1.27 µM.

The compound `CCCCOc1ccc(-c2cc(C(=O)OC)[nH]n2)cc1` [methyl 3-(4-butoxyphenyl)-1H-pyrazole-5-carboxylate] registered an IC50 of over 100 µM.

Compound `COC(=O)c1cc(-c2ccccc2)n[nH]1` [methyl 3-phenyl-1H-pyrazole-5-carboxylate] returned an IC50 of over 100 µM.
